Measurements as given in patent publication US20120034193A1, “TREATMENT OF NEUROTROPHIC FACTOR MEDIATED DISORDERS” (priority 2009, published 2012).

Experiments:
[1] = system: BDNF mRNA; assay: BDNF mRNA expression in rat cortical neurones after 48 h incubation (rt RT-PCR); assay type: cell-based; conditions: 10 μM, mean ± s.e.mean, n = 3
Procedure: In a separate experiment, rat cortical neurones were cultured by modification of a method previously described (Eckenstein and Sofroniew, Journal of Neuroscience, 1983, 3, pp. 2286-2291). On day 8, the culture medium was changed to a medium containing vehicle (DMSO, 0.5%) or smilagenin (10 μM) for 48 h and the level of BDNF mRNA in the cortical neurones was assessed by rt RT-PCR.

[2] = system: BDNF mRNA; assay: BDNF mRNA in rat cortical neurones pre-incubated 48 h then exposed to β-amyloid; assay type: cell-based; conditions: 10 μM pre-incubation 48 h
Procedure: Rat cortical neurones were cultured by modification of a method previously described (Eckenstein and Sofroniew, Journal of Neuroscience, 1983, 3, pp. 2286-2291). On day 8, the culture medium was changed to a medium containing vehicle (DMSO, 0.5%) or smilagenin (10 μM). On day 10, rat primary cortical neurones were exposed to β-amyloid (10 μg/ml) for up to 48 h at 37° C. and the level of BDNF mRNA in the cortical neurones was assessed by rt RT-PCR over the following 48 h.

[3] = system: GDNF mRNA; assay: GDNF mRNA in rat dopaminergic neurones following exposure to MPP+; assay type: cell-based; conditions: 10 μM after MPP+ 2 μM 48 h
Procedure: Rat dopaminergic neurones were prepared using a slightly modified previously described method (Brouard et al., Journal of Neuroscience, 1992, 12, pp. 1409-1415). After 5 days in culture MPP^+ (2 μM), a specific dopaminergic neurotoxin, or vehicle (saline) was added for 48 h. The culture medium was then replaced with fresh medium containing smilagenin (10 μM) or vehicle (DMSO, 0.25%) and the level of GDNF mRNA in the dopaminergic neurones was assessed after 10 min and 2, 24, 48 and 72 h by rt RT-PCR.

[4] = system: BDNF; assay: BDNF protein in culture medium of rat cortical neurones under basal conditions; assay type: cell-based; conditions: 10 μM, day 8 to day 12, basal culture; control 3.66 ± 0.05
Procedure: Rat cortical neurones were cultured by modification of a method previously described (Eckenstein and Sofroniew, Journal of Neuroscience, 1983, 3, pp. 2286-2291). On day 8, the culture medium was changed to a medium containing vehicle (DMSO, 0.5%) or smilagenin (10 μM). On day 12 the concentration of BDNF in the culture medium, was measured.

[5] = system: GDNF; assay: GDNF in culture medium of rat dopaminergic neurones exposed to MPP+; assay type: cell-based; conditions: 10 μM from day 6, MPP+ 2 μM day 8 for 48 h; MPP+ alone 2.7 ± 0.5
Procedure: Rat dopaminergic neurones were prepared using a slightly modified previously described method (Brouard et al., Journal of Neuroscience, 1992, 12, pp. 1409-1415). On day 6 the culture medium was replaced with fresh medium or fresh medium containing smilagenin (10 μM) or vehicle (DMSO, 0.25%). On day 8, MPP^+ (2 μM) or vehicle (saline) was added and 48 h later dopaminergic neurones were stained and the concentration of GDNF in the culture medium, neuronal damage and neurite outgrowth were assessed.

[6] = system: GDNF; assay: Striatal GDNF in MPTP-lesioned mice (ELISA); assay type: in vivo, C57b1/6 RJ mice; conditions: smilagenin 10 mg/kg/day oral, 60 days, striatum
Procedure: Seven-week old male C57b1/6 RJ mice (C57 mice) received daily injections 1-methyl-4-phenyl-1,2,3,6-tetrahydropyridine (MPTP, 25 mg/kg/day, i.p., for 5 consecutive days) and oral administration of smilagenin (10 mg/kg/day) or vehicle (hydroxylpropylmethylcellulose, HPMC 0.5% w/v containing tween-80 0.2% v/v) for 60 days after which time their brains were removed for quantification of striatal levels of GDNF and BDNF using an ELISA and of dopamine transporter (DAT) levels using [I^125]-RTI binding. DAT is a marker for neuronal damage to dopaminergic neurones.

[7] = system: Adrenergic α1, non selective; assay: Receptor binding assay; parameters: species or system Rat; conditions: sarsasapogenin 10 μM
Procedure: (§1) The receptor binding was investigated using the following method: Sarsasapogenin was incubated with tissue or cell homogenate that expressed the receptor of interest and a known concentration a radiolabelled compound with affinity for the receptor of interest. After the incubation period the non-bound radiolabelled compound was removed and the amount of specific binding was quantified. The amount of specific binding in the presence and absence of sarsasapogenin were compared and the percent inhibition of the binding of the radiolabelled compound by sarsasapogenin was calculated. The source of the receptor, the incubation conditions, the radiolabelled compound used varied depending on each specific assay.

[8] = system: Adrenergic α2, non selective; assay: Receptor binding assay; parameters: species or system Rat; conditions: sarsasapogenin 10 μM
Procedure: as §1

[9] = system: Adrenergic β, non selective; assay: Receptor binding assay; parameters: species or system Rat; conditions: sarsasapogenin 10 μM
Procedure: as §1

[10] = system: GABAA; assay: Receptor binding assay; parameters: species or system Rat; conditions: sarsasapogenin 10 μM
Procedure: as §1

[11] = system: Glutamate; assay: Receptor binding assay; parameters: species or system Rat; conditions: sarsasapogenin 10 μM
Procedure: as §1

[12] = system: Serotonin 5-HT1; assay: Receptor binding assay; parameters: species or system Rat; conditions: sarsasapogenin 10 μM
Procedure: as §1

[13] = system: phosphorylated CREB (pCREB); assay: Phosphorylated CREB in CHO cells (immunoblot); assay type: cell-based, Chinese hamster; conditions: 10 μM, 24 h, control 0.729 ± 0.112
Procedure: The CHO were incubated with DMSO (0.5%) or sarsasapogenin (10 μM) for 24 h. The cells were then washed with cold PBS, lysed in sodium dodecyl sulfate (SDS) buffer, boiled for 5 min and the protein content measured by the Bradford method. The samples were then separated on SDS polyacrylamide gels and transferred to PVDF (Bio-Rad) membrane. After exposure for 1 h in 5% skimmed milk powder, membranes were incubated overnight at 4° C. in primary antibody: mouse pCREB (Upsdate, 1:1000) and mouse β-actin (Santa Cruz, 1:1000). The membranes were then incubated in peroxidase conjugated secondary antibody (Wuhan Boster Biology Technology, China. 1:2000) for 1 h at room temperature and developed with ECL reagents (Pierce). Membranes were stripped by incubating in 2-mercaptoethanol (100 mM), SDS (2%), Tris HCl (62.5 mM) at pH 6.8 and 50° C. for 30 min Densitometric quantification of immunostaining was performed using Image J analysis system with an image analyzer (Gel Doc 2000, Bio-Rad). The relative amount of immunostaining of each band of pCREB was normalised to the β-actin band run in the same experiment and expressed as arbitrary units.

Structure (SMILES): C[C@@H]1CC[C@@]2(OC1)O[C@H]1C[C@H]3[C@@H]4CC[C@@H]5C[C@@H](O)CC[C@]5(C)[C@H]4CC[C@]3(C)[C@H]1[C@@H]2C [Smilagenin, smilagenin]
- Relative amount of BDNF mRNA (% of control) [1]: 103.9 ± 6.5 % of control
- Relative amount of BDNF mRNA (% of control at 0 h) ([2]; β-amyloid 10 μg/ml exposure 6 h): 108.0 ± 5.2 % of control at 0 h
- Relative amount of BDNF mRNA (% of control at 0 h) ([2]; β-amyloid 10 μg/ml exposure 24 h): 321.5 ± 54.2 % of control at 0 h
- Relative amount of BDNF mRNA (% of control at 0 h) ([2]; β-amyloid 10 μg/ml exposure 48 h): 334.6 ± 48.1 % of control at 0 h
- Relative amount of GDNF mRNA (% of control at 0.167 h) ([3]; smilagenin exposure 0.167 h): 119.9 ± 19.8 % of control at 0.167 h
- Relative amount of GDNF mRNA (% of control at 0.167 h) ([3]; smilagenin exposure 2 h): 581.6 ± 66.3 % of control at 0.167 h
- Relative amount of GDNF mRNA (% of control at 0.167 h) ([3]; smilagenin exposure 24 h): 3319.1 ± 830.3 % of control at 0.167 h
- Relative amount of GDNF mRNA (% of control at 0.167 h) ([3]; smilagenin exposure 48 h): 2185.3 ± 304.1 % of control at 0.167 h
- Relative amount of GDNF mRNA (% of control at 0.167 h) ([3]; smilagenin exposure 72 h): 1413.5 ± 352.1 % of control at 0.167 h
- BDNF concentration [4]: 3.67 ± 0.05 pg/mL
- GDNF concentration [5]: 6.6 ± 0.7 pg/mL
- GDNF (% increase above MPTP mice) [6]: 372 ± 92 %
- GDNF (pg/mg tissue) [6]: 275.31 ± 59.62 pg/mg tissue

Structure (SMILES): C[C@H]1CC[C@@]2(OC1)O[C@H]1C[C@H]3[C@@H]4CC[C@@H]5C[C@@H](O)CC[C@]5(C)[C@H]4CC[C@]3(C)[C@H]1[C@@H]2C [Sarsasapogenin, sarsasapogenin]
- Effect (%) [7]: NS (NS = No significant response. Significance was taken as ≧30% stimulation or inhibition)
- Effect (%) [8]: NS (NS = No significant response. Significance was taken as ≧30% stimulation or inhibition)
- Effect (%) [9]: NS (NS = No significant response. Significance was taken as ≧30% stimulation or inhibition)
- Effect (%) [10]: NS (NS = No significant response. Significance was taken as ≧30% stimulation or inhibition)
- Effect (%) [11]: NS (NS = No significant response. Significance was taken as ≧30% stimulation or inhibition)
- Effect (%) [12]: NS (NS = No significant response. Significance was taken as ≧30% stimulation or inhibition)
- Phosphorylated CREB (Arbitary units) [13]: 1.342 ± 0.084^++ Arbitary units
